From patent US20170326146A1, “METHODS OF TREATING HEPATITIS B INFECTIONS AND RELATED DOSAGE REGIMES” (ContraVir Pharmaceuticals, Inc., priority 2016, published 2017)
Where “and” joins values, the source holds several entries; their conditions need not be identical. Equal entries are not always repeated.

Experiments:
[1] = Phase I clinical trial with healthy adults: safety, blood pressure, ECG; assay type: in vivo, human; settings: healthy subjects
Protocol: Eight healthy subjects were given Compound I orally at a daily dose of 5 mg for administration periods of between 9 and 14 days. […] Additionally, a placebo was administered to four healthy subjects for administration periods of between 9 and 14 days. The subjects were evaluated for changes in baseline blood pressure (FIGS. 1A and 1B: Changes in systolic and diastolic blood pressure, respectively, after administration of 5 mg of Compound I; FIGS. 2A and 2B: Changes in systolic and diastolic blood pressure, respectively, after administration of 10 mg of Compound I; FIGS. 3A and 3B: Changes in systolic and diastolic blood pressure, respectively, after administration of placebo). Furthermore, electrocardiograms (ECGs) were recorded to evaluate the change in baseline of heart rate, RR intervals, PR intervals, QRS duration and QTcF in each subject (FIGS. 4A and 4B: Changes in heart rate and RR interval, respectively, after administration of 5 mg of Compound I; FIGS. 5A and 5B: Changes in heart rate and RR interval, respectively, after administration of 10 mg of Compound I; FIGS. 6A and 6B: Changes in heart rate and RR interval, respectively, after administration of placebo; FIGS. 7A, 7B, and 7C: Changes in PR interval, QRS duration, and QTcF duration, respectively, after administration of 5 mg of Compound I; FIGS. 8A, 8B and 8C: Changes in PR interval, QRS duration, and QTcF duration, respectively, after administration of 10 mg of Compound I; FIGS. 9A, 9B and 9C: Changes in PR interval, QRS duration, and QTcF duration, respectively, after administration of placebo). In the Figures, as well as in Table 2 below, individual subjects are identified by 6-digit numbers. Subjects that were administered 5 mg of Compound I, 10 mg of Compound I, or a placebo, were monitored for between 15 and 18 days, between 9 and 11 days, or between 9 and 18 days after initiation of the study, respectively. […] The baselines are defined as the last variable assessment prior to initiation of the study.

[2] = Pharmacokinetics of Compound I in human plasma: plasma concentrations of Compound I and tenofovir; assay type: in vivo; parameters: unit not given here; settings: single oral 5 mg dose of Compound I, individual subjects
Protocol: The pharmacokinetics of Compound I in human plasma was also evaluated. Plasma concentrations of Compound I and tenofovir (TFV) were measured at various time points up to 24 h after oral administration of a single 5 mg dose of Compound I. The results are summarized in Table 2.

[3] = 5 mg or 10 mg daily, dose groups and placebo not told apart

CCCCCCCCCCCCCCCCOCCCOP(=O)(O)CO[C@H](C)Cn1cnc2c(N)ncnc21 [Compound I, 3-(hexadecyloxy)propyl hydrogen ((R)-1-(6-amino-9H-purin 9-yl)propan-2-yloxy)methylphosphonate]
Adverse events reported [1, 3]: Few, minor adverse events (i.e., mild dizziness, headache or nausea) | ECG abnormalities reported [1, 3]: few ECG abnormalities (i.e., intraventricular conduction defect, frequent ventricular complexes and ectopic supraventricular rhythm) | Premature discontinuation of the study ([1]; 5 mg or 10 mg of Compound I daily or placebo): No subjects needed to discontinue the study prematurely | Safety and tolerability ([1]; oral daily dose of 5 mg for 9-14 days): safe and well-tolerated | Safety and tolerability ([1]; oral daily dose of 10 mg for 9-14 days): safe and well-tolerated | Pharmacokinetic plasma concentration of Compound I ([2]; 0.5 hours post-dose): 0.303 and 0.567 and <LLOQ < (0.150) (4×) and 1.090 and 0.893 | Pharmacokinetic plasma concentration of Compound I ([2]; 1 hour post-dose): 1.310 and 0.592 and 2.980 and 2.080 and <LLOQ < (0.150) (2×) and 1.570 and 0.743 | Pharmacokinetic plasma concentration of Compound I ([2]; 2 hours post-dose): 2.030 and 0.310 and 8.530 and 1.530 and 0.753 and 1.820 and 0.180 and 2.180 | Pharmacokinetic plasma concentration of Compound I ([2]; 2.5 hours post-dose): 0.412 and 1.550 and 1.350 and 5.250 and 1.340 and 1.500 and 0.206 and 1.070 | Pharmacokinetic plasma concentration of Compound I ([2]; 3 hours post-dose): 2.080 and 1.690 and 1.260 and 1.440 and 4.270 and 1.640 and 4.430 and 0.197 | Pharmacokinetic plasma concentration of Compound I ([2]; 4 hours post-dose): 1.180 and 2.460 and 0.712 and 0.508 and 1.500 and 0.520 and 1.540 and <LLOQ < (0.150) | Pharmacokinetic plasma concentration of Compound I ([2]; 6 hours post-dose): 0.448 and 0.891 and 0.179 and <LLOQ < (0.150) (3×) and 0.372 and 0.389 | Pharmacokinetic plasma concentration of Compound I ([2]; 10 hours post-dose): <LLOQ < (0.150) | Pharmacokinetic plasma concentration of Compound I ([2]; 12 hours post-dose): <LLOQ < (0.150) | Pharmacokinetic plasma concentration of Compound I ([2]; 15 hours post-dose): <LLOQ < (0.150) | Pharmacokinetic plasma concentration of Compound I ([2]; 18 hours post-dose): <LLOQ < (0.150) | Pharmacokinetic plasma concentration of Compound I ([2]; 24 hours post-dose): <LLOQ < (0.150) | Pharmacokinetic plasma concentration of Compound I ([2]; Pre-dose): <LLOQ < (0.150)

C[C@H](Cn1cnc2c(N)ncnc21)OCP(=O)(O)O [TFV, tenofovir]
Pharmacokinetic plasma concentration of TFV ([2]; 0.5 hours post-dose): <LLOQ < (0.500) | Pharmacokinetic plasma concentration of TFV ([2]; 1 hour post-dose): <LLOQ < (0.500) | Pharmacokinetic plasma concentration of TFV ([2]; 2 hours post-dose): 0.519 and <LLOQ < (0.500) (4×) and 0.528 and 0.733 | Pharmacokinetic plasma concentration of TFV ([2]; 2.5 hours post-dose): 0.822 and 0.693 and 0.665 and 0.708 and 0.596 and <LLOQ < (0.500) and 0.959 | Pharmacokinetic plasma concentration of TFV ([2]; 3 hours post-dose): 0.891 and <LLOQ < (0.500) (2×) and 0.764 and 0.900 and 0.781 and 0.648 and 0.918 | Pharmacokinetic plasma concentration of TFV ([2]; 4 hours post-dose): 1.140 (2×) and <LLOQ < (0.500) and 0.900 and 0.948 and 0.750 and 0.594 and 0.903 | Pharmacokinetic plasma concentration of TFV ([2]; 6 hours post-dose): 1.370 and 0.560 and 0.908 and 1.110 and 1.080 and 0.711 and 0.609 and 0.804 | Pharmacokinetic plasma concentration of TFV ([2]; 10 hours post-dose): 1.300 and 0.526 and 0.695 and 0.800 and 0.652 and 0.516 and 0.558 and 0.659 | Pharmacokinetic plasma concentration of TFV ([2]; 12 hours post-dose): 1.140 and <LLOQ < (0.500) (4×) and 0.535 and 0.664 and 0.574 | Pharmacokinetic plasma concentration of TFV ([2]; 15 hours post-dose): 1.040 and <LLOQ < (0.500) (6×) and 0.581 | Pharmacokinetic plasma concentration of TFV ([2]; 18 hours post-dose): 0.759 and <LLOQ < (0.500) (7×) | Pharmacokinetic plasma concentration of TFV ([2]; 24 hours post-dose): 0.599 and <LLOQ < (0.500) (7×) | Pharmacokinetic plasma concentration of TFV ([2]; Pre-dose): <LLOQ < (0.500)
